# From patent US6441027B1, “Method of regulating the female reproductive system through angiogenesis inhibitors” (Children's Medical Center Corporation, priority 1996, dated 2002)
# Entries after “also recorded” stand apart in the source; their conditions may differ.
# What was measured:
# Format in all cases: in vivo, mouse
# inseminated mice [1] = assay: Number of implantation sites after single dose pre-implantation; conditions: 30 mg/kg on E1, n=16
# Procedure: The same procedures were followed as described above in Example 2 to administer 30 mg/kg AGM-1470 in single doses on the specified days. The mice were sacrificed and the number of implantation cites were counted. There was no decrease in the number of implantation cites when AGM-1470 was given on E1 [control mice had 8±0.2 implants (n=29), mice injected with AGM-1470 on E1 had 9±0.4 implants (n=16)].
# decidual stromal cells = assay: PCNA staining of decidua on E6
# Procedure: To test this hypothesis, mice were treated with AGM-1470 on E1 and sacrificed at E6, a time point prior to placental formation. The uteri of the mice were examined by antibodies to Factor VIII and PCNA to determine if there was any difference in the degree of endometrial angiogenesis or the proliferative response of the decidua induced by trophoblast invasion. However, in the decidua there was a 50% decrease in the proliferation of stromal cells in the AGM-1470 treated mice as compared to control (PCNA staining/X630 field in control was 48%±3, n=4, versus 24%±5, n=4, P≦0.005 in AGM-1470 treated mice. See FIG. 4A and 4B). […]
# To determine the rate of cellular proliferation, staining for proliferating cell nuclear antigen (PCNA) was performed. […] Positive staining was detected by using horse radish peroxidase-conjugated secondary (Dako) and tertiary (Dako) antibodies, and DAB as a chromagen. The PCNA labeling index was determined by counting the percentage of stained cells under light microscopy within selected 630× fields. A minimum of 1,000 cells were counted for each specimen.
# In experiments with AGM-1470 treatment of pregnant mice, transverse sections through embryos contained within the uterus were stained. Microvessels density was determined at the intersite endometrium and PCNA was determined in the decidual stroma. […]
# inseminated mice [2] = assay: Inseminated mice, single low dose 3 mg/kg
# Procedure: The same protocol was followed as was performed for AGM-1470 30 mg/kg except mice were injected with only 3 mg/kg AGM-1470 on E1 or E7. The 10-fold lower dose was tested to determine if a dose in which the fetuses come to term would produce birth defects. Mice were sacrificed at E18 and fetal viability, number of implantation cites, crown-rump length, and tail length were assessed.
# [3] = tested on: embryo and yolk sac blood vessels; assay: Whole mount anti-CD31/PECAM staining of embryo and yolk sac on E9; conditions: 30 mg/kg on E7, studied E9
# Procedure: Mice were treated with 30 mg/kg AGM-1470 following the same protocol in Example 2. The control and AGM-1470 treated embryos were studied on E9 by whole mount immunohistochemistry for CD-31/PECAM to stain blood vessels. The fetus and the yolk sack in the mice given AGM-1470 on E1 were excluded due to necrosis by E9. […] Loss of vascular development in the embryo could be due to either a direct effect of AGM-1470 on the embryonic vasculature or to a secondary effect caused by failure of normal placental and yolk sac development.
# The whole-mount immunohistochemistry with monoclonal antibody to mouse PECAM (CD31) was performed essentially as described by Schlaeger^29 Embryos were dissected from the uterus and fixed in 4% paraformaldehyde, PBS at 4° Celsius overnight. The fixed embryos were subsequently rinsed in PBS at room temperature and dehydrated in a methanol series. The dehydrated embryos were bleached in 5% hydrogen peroxide in methanol for 4 to 5 hours at room temperature and then rinsed twice in methanol. Embryos were stored at −20° Celsius until used. The bleached embryos were rehydrated and blocked with PBSMT (3% instant skim milk, 0.1% Triton X-100, PBS) for one hour twice at room temperature. The embryos were then incubated with a 1:10 diluted hybridoma supernatant in PBSMT at 4° Celsius overnight. On the next day, the embryos were washed with PBSMT at 4° Celsius five times (1 hour each) and then incubated with a biotinylated secondary anti-rat IgG, mouse adsorbed (Vector Laboratories, Burlingame, Calif.) in PBSMT at 4° Celsius overnight. On the third day, the embryos were rinsed in PBSMT at 4° Celsius five times (1 hour each) and then incubated in avidin and horse radish conjugated biotin in PBSMT (1:100 dilution) (Vectastatin Elite Standard ABC Kit, Vector Laboratories) overnight at 4° Celsius. On the fourth day embryos were rinsed in PBSMT at 4° Celsius five time (1 hour each) and finally in PBT (0.2% BSA, 0.1% Triton-X100, PBS) for 20 minutes at room temperature. […]
structure (smiles),measurement,setting,value
"CO[C@@H]1[C@H](OC(=O)NC(=O)CCl)CC[C@]2(CO2)[C@H]1[C@@]1(C)O[C@@H]1CC=C(C)C [AGM-1470, O-chloroacetylcarbamoyl fumagillol]",number of implantation sites,inseminated mice [1],9±0.4 implants
same,decrease in proliferation of decidual stromal cells vs control,"decidual stromal cells; treated on E1, sacrificed E6",50%
same,PCNA staining/X630 field in decidua,"decidual stromal cells; treated on E1, sacrificed E6, n=4",24%±5
same,reduction of crown-rump length on E18 relative to control,inseminated mice [2]; 3 mg/kg on E1,36%
same,reduction of tail length relative to control,inseminated mice [2]; 3 mg/kg on E1,43%
same,fetal viability at E18,inseminated mice [2]; 3 mg/kg on E1 (n=21 fetuses) or E7 (n=8 fetuses),viable
same,crown-rump length on E18,"inseminated mice [2]; 3 mg/kg on E1, n=7 embryos",13.0±0.1 mm
same,birth defects,"inseminated mice [2]; 3 mg/kg on E1 or E7, fetuses at E18",no birth defects
same,reduction of crown-rump length on E18 relative to control,inseminated mice [2]; 3 mg/kg on E7,19%
same,reduction of tail length relative to control,inseminated mice [2]; 3 mg/kg on E7,12%
same,crown-rump length on E18,"inseminated mice [2]; 3 mg/kg on E7, n=7 embryos",16.5±0.5 mm
same,tail length on E18,"inseminated mice [2]; 3 mg/kg on E7, n=7 embryos",10.0±0.1 mm
same,CD31 labeled vessels in heart and liver bud,[3],almost a complete loss of CD31 labeled vessels
same,capillary density of embryo (CD31),[3],loss of capillary density; also recorded: diffuse decrease in capillary density
same,capillary density of yolk sac (CD31),[3],decrease in density and intercapillary distance of capillaries; also recorded: decreased capillary density
